Measurements published in PubChem BioAssay (NCI).
“And” between values parts separate entries of the source, which are not always exact repeats. Equal entries are not always repeated.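 In this assay, cells in 96-well plates receive the compound at five concentrations for 48 hours. Endpoints are linearly interpolated between the surrounding concentrations. GI50 marks 50% less growth. TGI denotes the concentration required for complete inhibition of growth.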

Key:
Assay in all cases: NCI-60 cell line screen, 48 h
[1] = system: PC-3 prostate
[2] = system: IGROV1 ovarian
[3] = system: HCT-15 colon
[4] = system: SNB-19 CNS
[5] = system: CAKI-1 renal
[6] = system: CCRF-CEM leukemia
[7] = system: U251 CNS
[8] = system: HS 578T breast
[9] = system: KM12 colon
[10] = system: SNB-75 CNS

Row | SMILES | TGI [1] [µM] | TGI [2] | TGI [3] [µM] | TGI [4] [µM] | TGI [5] | TGI [6] | TGI [7] [µM] | TGI [8] [µM] | TGI [9] | TGI [10] [µM] | GI50 [1] [nM] | GI50 [2] [nM] | GI50 [3] [nM] | GI50 [4] [µM] | GI50 [5] [µM] | GI50 [6] [nM] | GI50 [7] [µM] | GI50 [8] [nM] | GI50 [9] [nM] | GI50 [10] [µM]
1 | COc1ccc(SCc2cc(OC)ccc2OC)cc1 | > 100 | > 100 µM | > 66.3 | > 100 | > 100 µM | > 96.4 µM | > 100 | 97.7 | > 100 µM | > 52.8 |  |  |  |  |  |  |  |  |  | 
2 | CC1=NNC(=O)C1C1(C(=O)O)CC(c2c[nH]c3ccccc23)=NC(=S)N1 (stereo not given) | > 100 | > 100 µM | > 100 | > 100 | > 100 µM | 64.1 µM | 69.8 | 47.7 | 36.9 µM | 62.9 |  |  |  |  |  |  |  |  |  | 
3 | CCOC(=O)NC(Nc1ccc(F)cc1F)(C(F)(F)F)C(F)(F)F | > 100 | > 100 µM | > 100 | > 100 | > 100 µM | > 100 µM | > 100 | > 100 | > 100 µM | > 100 |  |  |  |  |  |  |  |  |  | 
4 | O=C1c2c(c3c4cc(F)ccc4oc3c3[nH]c4ccccc4c23)C(=O)N1O | > 100 | 11.1 µM | > 100 | 24.9 | 9.35 µM | > 100 µM | 13.4 | 9.59 | > 100 µM | 4.55 | 1350 | 460 | 1810 | 1.79 | 2.09 | 239 | 0.904 | 2530 | 3330 | 0.0769
5 | CC(C#N)(NO)C(C)(C#N)NO (stereo not given) | > 100 | > 100 µM | > 100 | > 100 | > 100 µM | > 100 µM | > 100 | > 100 | > 100 µM | > 100 |  |  |  |  |  |  |  |  |  | 
6 | COc1cc(/C=C/C(=O)CC(=O)/C=C/c2cc(C)c(O)c(OC)c2)cc(C)c1O | > 100 | > 100 µM | > 100 | > 100 | > 100 µM | > 100 µM | > 100 | > 100 | > 100 µM | > 100 |  |  |  |  |  |  |  |  |  | 
7 | COC(=O)[C@@]12CSC[C@]1(C(=O)OC)N[C@@H](c1ccccc1O)C2 | > 100 | > 100 µM | > 100 | > 100 | > 100 µM | > 100 µM | > 100 | > 100 | > 100 µM | > 100 |  |  |  |  |  |  |  |  |  | 
8 | Cc1cn(S(=O)(=O)c2ccccc2)c2c(OCc3ccccc3)cc([N+](=O)[O-])cc12 | > 100 | > 100 µM | > 100 | > 100 | > 100 µM | > 100 µM | > 100 | > 100 | > 100 µM | > 100 |  |  |  |  |  |  |  |  |  | 
9 | O=C(Cn1c2ccc(Br)cc2c2nc3ccccc3nc21)NCc1ccccc1 | > 100 | > 100 µM | > 100 | 72.4 | > 100 µM | > 100 µM | 69.7 | 92.4 | > 100 µM | 19.8 |  |  |  |  |  |  |  |  |  | 
10 | COc1ccc2c(c1)/C(=C\c1c(Cl)nc3n1CCS3)C(=O)N2 | 20 | > 100 µM | 62.1 | > 100 | > 100 µM | 79.2 µM | 57.6 | 44.1 | 23.2 µM | 36.5 |  |  |  |  |  |  |  |  |  | 
11 | NCCCn1c(Cl)nc2ccccc21 | > 100 | > 100 µM | > 100 | > 100 | > 100 µM | > 100 µM | > 100 | > 100 | > 100 µM | > 100 |  |  |  |  |  |  |  |  |  | 
12 | CS(=O)(=O)OCCN(CCOS(C)(=O)=O)c1ccc(C=Nc2ccc(-c3csc(Cc4ccccc4)n3)cc2)c(Cl)c1 | > 79.8 | > 74.2 µM | > 87.8 | > 89.6 | 13.5 µM | > 61.2 µM | > 83.3 | 76.7 | > 63.9 µM | > 68.1 |  |  |  |  |  |  |  |  |  | 
13 | N=c1oc2cc(O)ccc2cc1C(=O)Nc1ccccn1 | > 100 | > 100 µM | > 100 | > 100 | > 100 µM | 94.2 µM | > 100 | > 100 | > 100 µM | > 100 |  |  |  |  |  |  |  |  |  | 
14 | COC(=O)C1(Cc2ccc3c(c2)CCC3)Cc2ccc3c(c2C1=O)CCC3 (stereo not given) | > 95.2 | > 100 µM | > 40.5 | > 100 | > 100 µM | > 83.1 µM | > 69.6 | 16.4 | > 100 µM | > 55.5 |  |  |  |  |  |  |  |  |  | 
15 | CCO/N=C\c1ccc2oc(-c3ccccc3)cc(=O)c2c1 | 20.4 | 10.7 µM | 12.4 | 19.8 | 41.7 µM | 26 µM | 17.6 | 42.8 | 11.1 µM | 13.8 |  |  |  |  |  |  |  |  |  | 
16 | Nc1cc(C2CCCc3c2[nH]c2ccccc32)ccc1O (stereo not given) | > 100 | > 100 µM | > 100 | > 100 | 84.5 µM | > 100 µM | > 100 | > 100 | > 100 µM | > 100 |  |  |  |  |  |  |  |  |  | 
17 | Cc1cc2ncn(CC(=O)O)c2cc1C | > 100 | > 100 µM | > 100 | > 100 | > 100 µM | > 100 µM | > 100 | > 100 | > 100 µM | > 100 |  |  |  |  |  |  |  |  |  | 
18 | CCN(CC)Cc1cc(N=Nc2c(O)ccc3c(N=Nc4ccc(O)c(CN(CC)CC)c4)c(O)ccc23)ccc1O | > 41.1 | 19 µM | 4.7 | 15.6 | 8.25 µM | > 53.3 µM | 15.5 | > 38.7 | > 21.9 µM | 27.7 |  |  |  |  |  |  |  |  |  | 
19 | O=C(O)c1ccc2c(O)c(O)ccc2c1 | > 78.8 | 38.2 µM | 55 | 36.1 | 48.2 µM | > 31.6 µM | 45.6 | 70.9 | 31.3 µM | 22.4 |  |  |  |  |  |  |  |  |  | 
20 | Nc1cc(OCC2CCCCC2)nc(N)n1 | > 100 | > 100 µM | > 100 | > 100 | > 100 µM | > 100 µM | > 100 | > 100 | > 100 µM | > 100 |  |  |  |  |  |  |  |  |  | 
21 | COc1cc2ncnc(NS(=O)(=O)c3cc4ccccc4s3)c2cc1OC | > 100 | > 100 µM | > 100 | > 100 | > 100 µM | > 100 µM | > 100 | > 100 | > 100 µM | > 100 |  |  |  |  |  |  |  |  |  | 
22 | O=C1CCCC2=C1CC1=C(CCCC1=O)N2c1ccc(Cl)cc1 | > 100 | > 100 µM | > 100 | > 100 | > 100 µM | > 100 µM | > 100 | > 100 | > 100 µM | > 100 |  |  |  |  |  |  |  |  |  | 
23 | COc1ccc(N2C(=O)C3ON(Cc4ccc(CC(N)=O)cc4)C(c4c5ccccc5c(C)c5ccccc45)C3C2=O)cc1 (stereo not given) | > 100 | > 100 µM | 74.9 | > 100 | > 100 µM | > 100 µM | > 100 | > 100 | > 100 µM | 38.1 |  |  |  |  |  |  |  |  |  | 
24 | CCOP(=O)(OCC)C(c1ccc(F)cc1)N(C(=O)NC(F)(F)F)c1ccc(F)cc1 (stereo not given) | > 100 | > 100 µM | > 100 | > 100 | > 100 µM | > 100 µM | > 100 | > 100 | > 100 µM | > 100 |  |  |  |  |  |  |  |  |  | 
25 | Cc1cc(=O)[nH]c2cc(NC(=O)C(C)NC(=O)C(C)NC(=O)C(C)NC(=O)OC(C)(C)C)ccc12 (stereo not given) | > 15 | > 15 µM | > 15 | > 15 | > 15 µM | > 15 µM | > 15 | > 15 | > 15 µM | > 15 |  |  |  |  |  |  |  |  |  | 
26 | COc1c(C(=O)/C(=N/Nc2ccc(C(=O)O)cc2)C(C)=O)c(O)cc2occc12 | > 100 | > 100 µM | > 100 | > 100 | > 100 µM | > 100 µM | > 100 | > 100 | > 100 µM | > 100 |  |  |  |  |  |  |  |  |  | 
27 | ClCCCN1CCN(CCCl)CC1 | > 1000 | 652 µM | 790 | > 1000 | 358 µM | 437 µM | 543 | 885 | > 1000 µM | 681 |  |  |  | 99.1 |  | 2540 | 79.6 |  |  | 43.2
28 | O=c1c(NCc2ccccc2)c(C2(c3ccccc3F)SCCCS2)c1=O | > 100 | > 100 µM | > 100 | > 100 | > 100 µM | > 100 µM | > 100 | > 100 | > 100 µM | > 100 |  |  |  |  |  |  |  |  |  | 
29 | CN(C)N1C(=O)C(=O)N(c2cccc3ccccc23)C1=O | > 10 | > 10 µM | > 10 | > 10 | > 10 µM | > 10 µM | > 10 | > 10 | > 10 µM | > 10 |  |  |  |  |  |  |  |  |  | 
30 | COc1ccc2[nH]c3ccc4cc[n+](CCN5CCC(C6CCN(CC[n+]7ccc8ccc9[nH]c%10ccc(OC)cc%10c9c8c7)CC6)CC5)cc4c3c2c1 | 50 | 50 µM and > 19 µM |  | > 70.9 | 50 µM and 68.1 µM | 25.4 µM and 16.8 µM | > 52.3 | 50 | 50 µM and > 92.7 µM | 50 |  | 269 | 266 | > 50 | 10.9 | 566 | > 50 |  | 631 | 
